Test results reported in PMC12354831 (Cell Death Discovery, 2025).

Assays:
[1] = system: U87-MG cells; assay: CCK-8 IC50 determination in U87-MG cells with or without GLUT3 KD; format: cell-based, human; settings: GLUT3 KD vs control, CCK-8, 24 h drug treatment
Protocol: (§1) The GBM cell line was seeded into a 96-well plate at a density of 5 × 10^3 cells per well and incubated at 37 °C in a humidified atmosphere containing 5% CO2 overnight. […] Following 24 h of drug treatment, 10 µL of CCK-8 reagent was added to each well, and the cells were incubated for an additional 1 h at 37 °C. The absorbance was then measured at 450 nm using a microplate reader.
(§2) In this study, the experimental groups were designated as Group A (cells treated with temozolomide (TMZ) or capecitabine (CAPE)), the control group as Group B (cells treated with DMSO), and the blank control group as Group C ([…]). The cell viability rate was calculated using the formula: (A-C)/(B-C) × 100%, where A, B, and C represent the absorbance values of Group A, Group B, and Group C, respectively.

[2] = biological target: T1, GLUT3 (Homo sapiens, UniProt P11169); assay: Cellular uptake of TMZ and CAPE by LC-MS/MS, GLUT3 KD U343-MG cells; format: in vitro ADME; settings: for extracellular drug level higher than controls: GLUT3-KD U343-MG cells, remaining extracellular drug after uptake; for reduction of drug uptake by GLUT3 KD: U343-MG cells, 200 μM drug, 37 °C, 15 min, intracellular level vs control
T1 construct: expressed in transfected cells
T1 sequence (P11169 1-496): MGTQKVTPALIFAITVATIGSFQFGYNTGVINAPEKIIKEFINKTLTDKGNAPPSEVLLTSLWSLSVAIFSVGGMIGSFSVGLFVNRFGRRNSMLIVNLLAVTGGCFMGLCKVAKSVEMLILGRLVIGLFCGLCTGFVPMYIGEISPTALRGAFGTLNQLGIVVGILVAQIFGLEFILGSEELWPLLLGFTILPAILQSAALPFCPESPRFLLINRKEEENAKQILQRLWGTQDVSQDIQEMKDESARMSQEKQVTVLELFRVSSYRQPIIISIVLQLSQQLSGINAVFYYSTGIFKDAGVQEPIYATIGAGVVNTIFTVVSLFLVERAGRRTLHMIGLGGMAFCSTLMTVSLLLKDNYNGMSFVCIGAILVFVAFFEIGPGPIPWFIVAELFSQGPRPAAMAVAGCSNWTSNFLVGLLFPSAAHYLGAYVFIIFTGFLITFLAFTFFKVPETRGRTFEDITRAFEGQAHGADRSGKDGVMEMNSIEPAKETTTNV
Protocol: (§3) A total of 6 × 10^6 cells were seeded into each well of a 6 cm Petri dish and cultured at 37 °C in a humidified atmosphere containing 5% CO2 for 8 h. The cells were then washed twice with PBS (137 mM NaCl, 2.7 mM KCl, 10 mM Na2HPO4, 1.8 mM KH2PO4, pH 7.4) and incubated in transport buffer (140 mM NaCl, 5 mM KCl, 2 mM MgCl2, 2 mM CaCl2, 30 mM Tris-HCl, pH 7.4) for 15 min at 37 °C. […] Cell supernatants were collected and stored at 4 °C for subsequent extraction. The harvested cells were washed three times with PBS and extracted with 500 µL of 80% methanol for 30 min at −80 °C. The cell lysate was then centrifuged at 14,000 × g for 5 min at 4 °C, followed by 2 min of sonication. The supernatant was transferred to a new centrifuge tube. For LC-MS/MS analysis, the cell supernatants and cell lysates were diluted at a specific ratio. A total of 100 µL of each sample was mixed with 100 µL of acetonitrile (or standard reagent) and 300 µL of internal standard solution (^2H3-TMZ 100 ng/mL and ^2H11-CAPE 20 ng/mL dissolved in acetonitrile). […] Quality control (QC) samples were prepared and analyzed alongside the experimental samples to monitor the stability and repeatability of the instrument. QC samples were inserted regularly and analyzed every 6–12 samples. Each experiment was repeated 5–6 times.
(§4) LC-MS/MS analyses were performed using a high-performance liquid chromatography (HPLC) system (Shimadzu, LC-20A) coupled to a […] (ABSciex, API4000 QTRAP). The samples were separated on a 2.1 × 100 mm ACQUITY Premier BEH C18 1.7 µm VanGuard™ FIT column (Waters, Ireland). The mobile phases consisted of: Mobile phase A (0.1% formic acid and 2.5 mM ammonium acetate in water) and Mobile phase B (0.1% formic acid and 2.5 mM ammonium acetate in acetonitrile). Gradient elution was employed, with the flow rates and gradient conditions detailed in Table S2.
(§5) The mass spectrometry conditions were as follows: Ion source: electrospray ionization (ESI); Detection mode: positive ion mode; Scanning method: multiple reaction monitoring (MRM); Spray voltage (IS): 5500 V; Ion source temperature (TEM): 555 °C; Gas curtain pressure (CUR): 25 psi; Collision activation dissociation (CAD): MEDIUM; Nebulizer gas pressure (GS1): 55 psi; Auxiliary gas pressure (GS2): 55 psi.

[3] = biological target: T1, GLUT3; assay: Cellular uptake of TMZ and CAPE by LC-MS/MS, GLUT3 OE U251-MG cells; format: in vitro ADME; settings: for decrease of extracellular drug concentration: GLUT3 OE U251-MG cells, remaining extracellular drug after uptake; for increase of drug uptake by GLUT3 OE: U251-MG cells, 200 μM drug, 37 °C, 15 min, intracellular level vs control
Protocol: as §3, §4, §5

[4] = biological target: GLUT3 mutants; assay: MST binding assay, GLUT3 mutants taken together vs WT; set-up: species or system human
Protocol: Data from three independent measurements were analyzed using MO. Affinity Analysis software (version 2.1.3, NanoTemper Technologies).

[5] = system: U251-MG cells; assay: CCK-8 IC50 in U251-MG cells expressing GLUT3 mutants vs WT; format: cell-based, human; settings: GLUT3 Q159A vs GLUT3 WT
Protocol: as §1, §2

[6] = system: U251-MG cell-derived xenograft; assay: Tumor growth in U251-MG cell-derived xenograft model; format: in vivo, nude mice (BALB/c-nu); settings: TMZ 40 mg/kg or CAPE 20 mg/kg every 3 days; for effect of fasting on tumor growth under drug treatment: GLUT3-overexpressing tumors, 24 h fast before each dose vs non-fasting; for effect on tumor growth vs saline groups: nude mice
Protocol: All animal studies were approved and supervised by the Ethics Committee for Animal Use and Care at Peking University. Nude mice (BALB/c-nu) were purchased and maintained as previously described. For the establishment of xenograft tumor models, 1 × 10^6 U251-MG cells (either negative vector control or overexpressing GLUT3) were injected into the bilateral axillary fossae of 4-week-old nude mice. After 7 days, when palpable tumors had formed, the mice were randomly divided into six experimental groups (n = 7 per group), and treatment was initiated immediately.
Tumor diameters were measured every 4 days using calipers. At the end of the study, all mice were sacrificed, and the tumors were carefully excised and weighed. Tumor volume was calculated using the formula V = (length*width^2)/2. Data were analyzed using statistical software to evaluate the differences among groups.

| Structure (SMILES) | fold increase of IC50 on GLUT3 knockdown [1] [fold] | extracellular drug level higher than controls [2] [%] | reduction of drug uptake by GLUT3 KD [2] [%] | decrease of extracellular drug concentration [3] [%] | increase of drug uptake by GLUT3 OE [3] | Kd increase vs WT ([4]; mutants T28A, S71A, Q281A, N286A, W386A, and G417A) [fold] | fold increase in IC50 [5] [fold] | effect of fasting on tumor growth under drug treatment [6] | effect on tumor growth vs saline groups [6] | Kd increase vs WT ([4]; seven mutants) [fold] |
| --- | --- | --- | --- | --- | --- | --- | --- | --- | --- | --- |
| Cn1nnc2c(C(N)=O)ncn2c1=O [TMZ] | 10.6 | 3 | 54.3 | 7.7 | ~ 70% | > 1000 | 1.3 | significantly inhibited tumor growth | reducing tumor weights and volumes |  |
| CCCCCOC(=O)Nc1nc(=O)n([C@@H]2O[C@H](C)[C@@H](O)[C@H]2O)cc1F [CAPE, capecitabine] | 56.5 | 12 | 65.5 | 5.4 | ~ 70% |  | 3.6 | significantly inhibited tumor growth | reducing tumor weights and volumes | > 1000 |
